Test results: ChEMBL document CHEMBL2074246, “Distinct groups of multidrug resistance modulating agents are distinguished by competition of P-glycoprotein-specific antibodies” (Biochem Biophys Res Commun, 2004)
Blank lines part the entries; values can stand above or below the compound they belong to.

Legend:
Format in all cases: functional, cell-based
[1] = molecular target: T1, ATP-dependent translocase ABCB1 (Homo sapiens, UniProt P08183); test: TP_TRANSPORTER: increase in Calcein-AM intracellular accumulation (Calcein-AM: 0.5 uM, Vincristine: 200 uM) in MDR1-expressing NIH-3T3 cells; conditions: mouse, nih3t3, 200 µM
T1 sequence (P08183 whole entry): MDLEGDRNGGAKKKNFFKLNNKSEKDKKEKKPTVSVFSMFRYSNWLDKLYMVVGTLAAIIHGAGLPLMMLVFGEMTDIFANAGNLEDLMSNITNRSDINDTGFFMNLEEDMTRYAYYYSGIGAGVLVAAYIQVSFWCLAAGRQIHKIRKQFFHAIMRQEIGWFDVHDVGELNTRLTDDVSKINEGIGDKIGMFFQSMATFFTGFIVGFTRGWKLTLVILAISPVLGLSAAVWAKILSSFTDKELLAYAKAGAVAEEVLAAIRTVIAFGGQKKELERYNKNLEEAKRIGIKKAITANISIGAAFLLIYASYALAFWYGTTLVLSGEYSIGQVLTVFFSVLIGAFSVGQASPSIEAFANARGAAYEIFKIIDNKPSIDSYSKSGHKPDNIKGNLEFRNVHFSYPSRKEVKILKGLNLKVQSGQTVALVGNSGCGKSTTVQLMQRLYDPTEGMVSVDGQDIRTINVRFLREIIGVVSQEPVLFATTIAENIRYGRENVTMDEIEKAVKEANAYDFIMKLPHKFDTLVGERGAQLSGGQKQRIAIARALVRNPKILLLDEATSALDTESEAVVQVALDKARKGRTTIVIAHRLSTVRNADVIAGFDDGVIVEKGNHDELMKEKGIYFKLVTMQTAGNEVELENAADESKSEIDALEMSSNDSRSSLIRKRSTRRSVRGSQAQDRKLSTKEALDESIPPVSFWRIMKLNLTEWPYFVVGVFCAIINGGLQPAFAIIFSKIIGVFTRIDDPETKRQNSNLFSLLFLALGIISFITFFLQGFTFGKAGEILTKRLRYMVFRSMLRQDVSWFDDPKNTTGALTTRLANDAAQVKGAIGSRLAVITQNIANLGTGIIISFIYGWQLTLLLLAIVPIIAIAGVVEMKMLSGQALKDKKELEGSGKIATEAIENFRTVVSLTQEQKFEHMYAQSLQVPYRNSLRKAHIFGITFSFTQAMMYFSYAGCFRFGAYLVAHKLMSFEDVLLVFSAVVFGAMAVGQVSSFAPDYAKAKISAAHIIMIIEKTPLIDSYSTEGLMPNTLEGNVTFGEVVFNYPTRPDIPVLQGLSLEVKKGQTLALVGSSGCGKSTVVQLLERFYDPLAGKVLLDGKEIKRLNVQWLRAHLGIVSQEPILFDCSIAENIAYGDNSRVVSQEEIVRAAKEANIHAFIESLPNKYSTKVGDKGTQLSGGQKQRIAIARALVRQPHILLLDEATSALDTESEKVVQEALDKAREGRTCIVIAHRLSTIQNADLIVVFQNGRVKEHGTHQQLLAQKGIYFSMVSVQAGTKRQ

[2] = molecular target: T1, ATP-dependent translocase ABCB1; test: TP_TRANSPORTER: increase in Calcein-AM intracellular accumulation (Calcein-AM: 0.5 uM, Prazosin: 10 uM) in MDR1-expressing NIH-3T3 cells; conditions: mouse, nih3t3, 10 µM
[3] = molecular target: T1, ATP-dependent translocase ABCB1; test: TP_TRANSPORTER: increase in Calcein-AM intracellular accumulation (Calcein-AM: 0.5 uM, Oligomycin: 5 uM) in MDR1-expressing NIH-3T3 cells; conditions: mouse, nih3t3, 5 µM
[4] = molecular target: T1, ATP-dependent translocase ABCB1; test: TP_TRANSPORTER: increase in Calcein-AM intracellular accumulation (Calcein-AM: 0.5 uM, Puromycin: 20 uM) in MDR1-expressing NIH-3T3 cells; conditions: mouse, nih3t3, 20 µM
[5] = molecular target: T1, ATP-dependent translocase ABCB1; test: TP_TRANSPORTER: increase in Calcein-AM intracellular accumulation (Calcein-AM: 0.5 uM, Taxol: 20 uM) in MDR1-expressing NIH-3T3 cells; conditions: mouse, nih3t3, 20 µM

- Activity [1]: is not an inhibitor [-]
Structure (SMILES): CC[C@]1(O)C[C@H]2CN(CCc3c([nH]c4ccccc34)[C@@](C(=O)OC)(c3cc4c(cc3OC)N(C=O)[C@H]3[C@@](O)(C(=O)OC)[C@H](OC(C)=O)[C@]5(CC)C=CCN6CC[C@]43[C@@H]65)C2)C1 [VINCRISTINE]

- Activity [4]: is not an inhibitor [-]
Structure (SMILES): COc1ccc(C[C@H](N)C(=O)N[C@H]2[C@@H](O)[C@H](n3cnc4c(N(C)C)ncnc43)O[C@@H]2CO)cc1 [PUROMYCIN]

- Activity [5]: is not an inhibitor [-]
Structure (SMILES): CC(=O)O[C@H]1C(=O)[C@@]2(C)[C@H]([C@H](OC(=O)c3ccccc3)[C@]3(O)C[C@H](OC(=O)[C@H](O)[C@@H](NC(=O)c4ccccc4)c4ccccc4)C(C)=C1C3(C)C)[C@]1(OC(C)=O)CO[C@@H]1C[C@@H]2O [PACLITAXEL]

Second part, the compound before the results:

Structure (SMILES): COc1cc2nc(N3CCN(C(=O)c4ccco4)CC3)nc(N)c2cc1OC [PRAZOSIN]
- Activity [2]: is not an inhibitor [-]

Structure (SMILES): CC[C@H]1/C=C/C=C/C[C@@H](C)[C@H](O)[C@@](C)(O)C(=O)[C@@H](C)[C@H](O)[C@@H](C)C(=O)[C@@H](C)[C@H](O)[C@@H](C)/C=C/C(=O)O[C@@H]2[C@H](C)[C@H](CC1)O[C@]1(CC[C@H](C)[C@H](C[C@@H](C)O)O1)[C@H]2C [OLIGOMYCIN]
- Activity [3]: is not an inhibitor [-]
